Results taken from ChEMBL document CHEMBL4507316 (2021).

Key:
[1] = system: Tyrosine-protein kinase ABL1 (Homo sapiens), P00519 [F317I]; test: ABL1 F317I ProQinase selectivity panel; conditions: Compound concentration 1.0 uM
[2] = system: Tyrosine-protein kinase ABL1 (Homo sapiens), P00519 [H396P]; test: ABL1 H396P ProQinase selectivity panel; conditions: Compound concentration 1.0 uM
[3] = biological target: Tyrosine-protein kinase receptor UFO (Homo sapiens) (UniProt P30530); test: AXL ProQinase selectivity panel; conditions: Compound concentration 1.0 uM
[4] = biological target: Cytoplasmic tyrosine-protein kinase BMX (Homo sapiens) (UniProt P51813); test: BMX ProQinase selectivity panel; conditions: Compound concentration 1.0 uM
[5] = biological target: Cyclin-dependent kinase 2/cyclin A (Homo sapiens) (UniProt P24941+P20248+P78396); test: CDK2/CycA ProQinase selectivity panel; assay type: protein-complex assay; conditions: Compound concentration 1.0 uM
[6] = biological target: CDK8/Cyclin C (Homo sapiens) (UniProt P49336+P24863); test: CDK8/CycC ProQinase selectivity panel; assay type: protein-complex assay; conditions: Compound concentration 1.0 uM
[7] = biological target: Serine/threonine-protein kinase Chk1 (Homo sapiens) (UniProt O14757); test: CHK1 ProQinase selectivity panel; conditions: Compound concentration 1.0 uM
[8] = biological target: Casein kinase I isoform gamma-3 (Homo sapiens) (UniProt Q9Y6M4); test: CK1-gamma3 ProQinase selectivity panel; conditions: Compound concentration 1.0 uM
[9] = biological target: Casein kinase II subunit alpha (Homo sapiens) (UniProt P68400); test: CK2-alpha1 ProQinase selectivity panel; conditions: Compound concentration 1.0 uM
[10] = biological target: Casein kinase II subunit alpha' (Homo sapiens) (UniProt P19784); test: CK2-alpha2 ProQinase selectivity panel; conditions: Compound concentration 1.0 uM
[11] = biological target: Dual specificity protein kinase CLK4 (Homo sapiens) (UniProt Q9HAZ1); test: CLK4 ProQinase selectivity panel; conditions: Compound concentration 1.0 uM
[12] = biological target: Myotonin-protein kinase (Homo sapiens) (UniProt Q09013); test: DMPK ProQinase selectivity panel; conditions: Compound concentration 1.0 uM
[13] = system: Epidermal growth factor receptor (Homo sapiens), P00533 [T790M]; test: EGF-R T790M ProQinase selectivity panel; conditions: Compound concentration 1.0 uM
[14] = biological target: Ephrin type-A receptor 7 (Homo sapiens) (UniProt Q15375); test: EPHA7 ProQinase selectivity panel; conditions: Compound concentration 1.0 uM
[15] = system: Fibroblast growth factor receptor 3 (Homo sapiens), P22607 [K650E]; test: FGF-R3 K650E ProQinase selectivity panel; conditions: Compound concentration 1.0 uM
[16] = biological target: Tyrosine-protein kinase Fgr (Homo sapiens) (UniProt P09769); test: FGR ProQinase selectivity panel; conditions: Compound concentration 1.0 uM
[17] = biological target: Tyrosine-protein kinase FRK (Homo sapiens) (UniProt P42685); test: FRK ProQinase selectivity panel; conditions: Compound concentration 1.0 uM
[18] = biological target: Tyrosine-protein kinase Fyn (Homo sapiens) (UniProt P06241); test: FYN ProQinase selectivity panel; conditions: Compound concentration 1.0 uM
[19] = biological target: Tyrosine-protein kinase ITK/TSK (Homo sapiens) (UniProt Q08881); test: ITK ProQinase selectivity panel; conditions: Compound concentration 1.0 uM
[20] = biological target: Mitogen-activated protein kinase 9 (Homo sapiens) (UniProt P45984); test: JNK2 ProQinase selectivity panel; conditions: Compound concentration 1.0 uM
[21] = biological target: Mitogen-activated protein kinase 10 (Homo sapiens) (UniProt P53779); test: JNK3 ProQinase selectivity panel; conditions: Compound concentration 1.0 uM
[22] = biological target: Tyrosine-protein kinase Lck (Homo sapiens) (UniProt P06239); test: LCK ProQinase selectivity panel; conditions: Compound concentration 1.0 uM
[23] = biological target: LIM domain kinase 2 (Homo sapiens) (UniProt P53671); test: LIMK2 ProQinase selectivity panel; conditions: Compound concentration 1.0 uM
[24] = system: Leucine-rich repeat serine/threonine-protein kinase 2 (Homo sapiens), Q5S007 [G2019S]; test: LRRK2 G2019S ProQinase selectivity panel; conditions: Compound concentration 1.0 uM
[25] = system: Leucine-rich repeat serine/threonine-protein kinase 2 (Homo sapiens), Q5S007 [I2020T]; test: LRRK2 I2020T ProQinase selectivity panel; conditions: Compound concentration 1.0 uM
[26] = biological target: Mitogen-activated protein kinase kinase kinase 11 (Homo sapiens) (UniProt Q16584); test: MAP3K11 ProQinase selectivity panel; conditions: Compound concentration 1.0 uM
[27] = biological target: Mitogen-activated protein kinase kinase kinase kinase 4 (Homo sapiens) (UniProt O95819); test: MAP4K4 ProQinase selectivity panel; conditions: Compound concentration 1.0 uM
[28] = biological target: MAP kinase-activated protein kinase 2 (Homo sapiens) (UniProt P49137); test: MAPKAPK2 ProQinase selectivity panel; conditions: Compound concentration 1.0 uM
[29] = biological target: Misshapen-like kinase 1 (Homo sapiens) (UniProt Q8N4C8); test: MINK1 ProQinase selectivity panel; conditions: Compound concentration 1.0 uM
[30] = biological target: Serine/threonine-protein kinase mTOR (Homo sapiens) (UniProt P42345); test: mTOR ProQinase selectivity panel; conditions: Compound concentration 1.0 uM
[31] = biological target: Muscle, skeletal receptor tyrosine-protein kinase (Homo sapiens) (UniProt O15146); test: MUSK ProQinase selectivity panel; conditions: Compound concentration 1.0 uM
[32] = biological target: Mitogen-activated protein kinase 13 (Homo sapiens) (UniProt O15264); test: p38-delta ProQinase selectivity panel; conditions: Compound concentration 1.0 uM
[33] = biological target: Serine/threonine-protein kinase PAK 4 (Homo sapiens) (UniProt O96013); test: PAK4 ProQinase selectivity panel; conditions: Compound concentration 1.0 uM
[34] = biological target: Platelet-derived growth factor receptor alpha (Homo sapiens) (UniProt P16234); test: PDGFR-alpha wt ProQinase selectivity panel; conditions: Compound concentration 1.0 uM
[35] = biological target: cAMP-dependent protein kinase catalytic subunit alpha (Homo sapiens) (UniProt P17612); test: PKA ProQinase selectivity panel; conditions: Compound concentration 1.0 uM
[36] = biological target: Protein kinase C epsilon type (Homo sapiens) (UniProt Q02156); test: PKC-epsilon ProQinase selectivity panel; conditions: Compound concentration 1.0 uM
[37] = biological target: Protein-tyrosine kinase 2-beta (Homo sapiens) (UniProt Q14289); test: PYK2 ProQinase selectivity panel; conditions: Compound concentration 1.0 uM
[38] = biological target: Dual serine/threonine and tyrosine protein kinase (Homo sapiens) (UniProt Q6XUX3); test: RIPK5 ProQinase selectivity panel; conditions: Compound concentration 1.0 uM
[39] = biological target: Ribosomal protein S6 kinase beta-2 (Homo sapiens) (UniProt Q9UBS0); test: S6K-beta ProQinase selectivity panel; conditions: Compound concentration 1.0 uM
[40] = biological target: NUAK family SNF1-like kinase 2 (Homo sapiens) (UniProt Q9H093); test: SNARK ProQinase selectivity panel; conditions: Compound concentration 1.0 uM
[41] = biological target: TGF-beta receptor type-1 (Homo sapiens) (UniProt P36897); test: TGFB-R1 ProQinase selectivity panel; conditions: Compound concentration 1.0 uM
[42] = biological target: High affinity nerve growth factor receptor (Homo sapiens) (UniProt P04629); test: TRK-A ProQinase selectivity panel; conditions: Compound concentration 1.0 uM
[43] = biological target: Tyrosine-protein kinase TXK (Homo sapiens) (UniProt P42681); test: TXK ProQinase selectivity panel; conditions: Compound concentration 1.0 uM
[44] = biological target: Tyrosine-protein kinase Yes (Homo sapiens) (UniProt P07947); test: YES ProQinase selectivity panel; conditions: Compound concentration 1.0 uM
[45] = biological target: 5-hydroxytryptamine receptor 1A (Homo sapiens) (UniProt P08908); conditions: Compound concentration 10.0 uM
[46] = biological target: Mu-type opioid receptor (Homo sapiens) (UniProt P35372); conditions: Compound concentration 10.0 uM
[47] = biological target: Alpha-1B adrenergic receptor (Homo sapiens) (UniProt P35368); conditions: Compound concentration 10.0 uM
[48] = biological target: Beta-2 adrenergic receptor (Homo sapiens) (UniProt P07550); conditions: Compound concentration 10.0 uM
[49] = biological target: Muscarinic acetylcholine receptor M2 (Homo sapiens) (UniProt P08172); conditions: Compound concentration 10.0 uM
Chain of Muscarinic acetylcholine receptor M2 (Homo sapiens) (P08172 whole entry): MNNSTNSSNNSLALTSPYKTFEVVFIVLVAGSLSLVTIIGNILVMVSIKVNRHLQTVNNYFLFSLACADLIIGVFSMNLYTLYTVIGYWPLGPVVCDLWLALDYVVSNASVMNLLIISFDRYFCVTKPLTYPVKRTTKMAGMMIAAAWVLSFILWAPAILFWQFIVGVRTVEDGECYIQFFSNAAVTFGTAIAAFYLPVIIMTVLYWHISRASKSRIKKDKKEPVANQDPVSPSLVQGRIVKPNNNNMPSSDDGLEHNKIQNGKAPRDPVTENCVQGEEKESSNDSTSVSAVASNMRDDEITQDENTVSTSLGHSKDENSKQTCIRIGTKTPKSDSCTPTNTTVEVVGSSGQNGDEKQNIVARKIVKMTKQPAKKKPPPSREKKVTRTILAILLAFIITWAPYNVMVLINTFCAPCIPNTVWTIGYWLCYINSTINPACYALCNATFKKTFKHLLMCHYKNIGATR

Chain of Alpha-1B adrenergic receptor (Homo sapiens) (P35368 whole entry): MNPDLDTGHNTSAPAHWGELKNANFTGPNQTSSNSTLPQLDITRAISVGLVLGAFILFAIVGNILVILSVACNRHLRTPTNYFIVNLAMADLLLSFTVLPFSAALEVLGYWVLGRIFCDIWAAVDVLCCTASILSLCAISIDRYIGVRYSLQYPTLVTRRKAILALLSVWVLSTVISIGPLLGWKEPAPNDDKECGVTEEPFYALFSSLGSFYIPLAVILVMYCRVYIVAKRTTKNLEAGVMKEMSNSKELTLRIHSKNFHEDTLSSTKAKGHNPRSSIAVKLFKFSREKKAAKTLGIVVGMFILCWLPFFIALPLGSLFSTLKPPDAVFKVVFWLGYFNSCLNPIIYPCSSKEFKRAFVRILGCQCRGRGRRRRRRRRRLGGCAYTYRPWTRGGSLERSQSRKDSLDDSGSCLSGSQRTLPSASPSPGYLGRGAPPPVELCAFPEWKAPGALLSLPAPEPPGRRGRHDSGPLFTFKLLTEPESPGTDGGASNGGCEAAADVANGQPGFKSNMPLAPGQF
Chain of Leucine-rich repeat serine/threonine-protein kinase 2 (Homo sapiens), Q5S007 [G2019S] (Q5S007 whole entry G2019S): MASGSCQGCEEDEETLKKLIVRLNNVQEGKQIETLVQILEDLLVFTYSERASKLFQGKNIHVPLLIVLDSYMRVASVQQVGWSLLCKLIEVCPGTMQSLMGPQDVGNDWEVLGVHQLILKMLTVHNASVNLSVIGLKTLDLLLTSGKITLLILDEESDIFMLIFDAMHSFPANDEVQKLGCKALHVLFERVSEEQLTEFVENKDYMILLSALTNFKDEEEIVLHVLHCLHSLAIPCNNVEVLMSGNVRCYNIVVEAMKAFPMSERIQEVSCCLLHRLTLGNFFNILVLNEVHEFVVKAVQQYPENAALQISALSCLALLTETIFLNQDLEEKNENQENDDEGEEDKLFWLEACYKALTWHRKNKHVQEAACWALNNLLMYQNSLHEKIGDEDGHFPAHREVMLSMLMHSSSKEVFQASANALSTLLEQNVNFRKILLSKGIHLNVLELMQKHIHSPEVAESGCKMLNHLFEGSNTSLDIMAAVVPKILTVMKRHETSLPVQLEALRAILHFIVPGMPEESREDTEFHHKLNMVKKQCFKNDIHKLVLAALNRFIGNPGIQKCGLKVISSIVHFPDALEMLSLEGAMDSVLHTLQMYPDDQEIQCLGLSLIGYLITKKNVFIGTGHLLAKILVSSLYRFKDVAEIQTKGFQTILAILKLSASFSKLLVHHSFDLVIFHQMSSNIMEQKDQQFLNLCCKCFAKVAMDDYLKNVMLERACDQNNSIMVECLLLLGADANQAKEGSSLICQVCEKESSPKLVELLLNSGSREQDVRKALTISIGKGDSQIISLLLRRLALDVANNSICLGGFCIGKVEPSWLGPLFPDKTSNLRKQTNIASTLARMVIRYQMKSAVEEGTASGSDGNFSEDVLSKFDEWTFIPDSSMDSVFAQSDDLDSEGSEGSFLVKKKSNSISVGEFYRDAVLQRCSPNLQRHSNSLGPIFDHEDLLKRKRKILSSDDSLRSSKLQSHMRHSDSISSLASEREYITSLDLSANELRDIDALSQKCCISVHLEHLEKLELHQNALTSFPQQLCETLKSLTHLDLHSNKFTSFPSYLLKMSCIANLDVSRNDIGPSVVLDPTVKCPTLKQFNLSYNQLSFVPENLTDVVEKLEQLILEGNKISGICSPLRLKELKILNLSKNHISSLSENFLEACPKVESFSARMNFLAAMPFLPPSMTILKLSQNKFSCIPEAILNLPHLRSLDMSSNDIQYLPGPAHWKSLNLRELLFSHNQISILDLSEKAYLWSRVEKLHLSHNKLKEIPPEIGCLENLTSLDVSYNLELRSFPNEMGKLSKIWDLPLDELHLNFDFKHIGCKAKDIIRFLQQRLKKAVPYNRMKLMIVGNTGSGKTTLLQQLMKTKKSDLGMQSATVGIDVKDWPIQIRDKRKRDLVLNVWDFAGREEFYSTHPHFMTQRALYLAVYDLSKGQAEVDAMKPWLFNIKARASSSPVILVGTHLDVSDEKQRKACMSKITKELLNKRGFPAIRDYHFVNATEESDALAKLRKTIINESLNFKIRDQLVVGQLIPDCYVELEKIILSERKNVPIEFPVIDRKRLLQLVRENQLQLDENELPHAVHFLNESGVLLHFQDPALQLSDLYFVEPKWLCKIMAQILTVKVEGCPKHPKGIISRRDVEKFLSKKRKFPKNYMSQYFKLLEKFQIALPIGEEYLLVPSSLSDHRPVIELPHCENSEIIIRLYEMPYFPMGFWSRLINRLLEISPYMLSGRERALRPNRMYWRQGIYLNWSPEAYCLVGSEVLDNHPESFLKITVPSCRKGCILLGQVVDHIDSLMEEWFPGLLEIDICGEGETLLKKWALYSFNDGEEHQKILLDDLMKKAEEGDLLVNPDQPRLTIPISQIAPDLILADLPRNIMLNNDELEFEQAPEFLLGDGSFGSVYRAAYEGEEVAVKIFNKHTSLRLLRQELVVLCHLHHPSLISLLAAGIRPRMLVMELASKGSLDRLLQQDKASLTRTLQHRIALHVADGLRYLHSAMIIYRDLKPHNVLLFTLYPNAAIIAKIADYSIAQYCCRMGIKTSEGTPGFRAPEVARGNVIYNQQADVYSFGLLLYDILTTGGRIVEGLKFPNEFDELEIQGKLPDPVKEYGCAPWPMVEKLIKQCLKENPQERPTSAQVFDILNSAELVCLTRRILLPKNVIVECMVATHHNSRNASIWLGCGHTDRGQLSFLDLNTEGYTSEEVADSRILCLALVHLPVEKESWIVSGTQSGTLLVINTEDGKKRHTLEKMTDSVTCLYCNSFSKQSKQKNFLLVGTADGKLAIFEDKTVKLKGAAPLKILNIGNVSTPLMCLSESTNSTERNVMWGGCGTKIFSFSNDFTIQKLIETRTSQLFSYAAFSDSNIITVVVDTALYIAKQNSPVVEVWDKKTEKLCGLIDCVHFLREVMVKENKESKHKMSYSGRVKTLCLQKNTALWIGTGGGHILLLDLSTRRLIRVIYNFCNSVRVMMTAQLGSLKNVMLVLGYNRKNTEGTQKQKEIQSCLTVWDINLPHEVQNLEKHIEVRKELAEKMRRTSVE
Chain of TGF-beta receptor type-1 (Homo sapiens) (P36897 whole entry): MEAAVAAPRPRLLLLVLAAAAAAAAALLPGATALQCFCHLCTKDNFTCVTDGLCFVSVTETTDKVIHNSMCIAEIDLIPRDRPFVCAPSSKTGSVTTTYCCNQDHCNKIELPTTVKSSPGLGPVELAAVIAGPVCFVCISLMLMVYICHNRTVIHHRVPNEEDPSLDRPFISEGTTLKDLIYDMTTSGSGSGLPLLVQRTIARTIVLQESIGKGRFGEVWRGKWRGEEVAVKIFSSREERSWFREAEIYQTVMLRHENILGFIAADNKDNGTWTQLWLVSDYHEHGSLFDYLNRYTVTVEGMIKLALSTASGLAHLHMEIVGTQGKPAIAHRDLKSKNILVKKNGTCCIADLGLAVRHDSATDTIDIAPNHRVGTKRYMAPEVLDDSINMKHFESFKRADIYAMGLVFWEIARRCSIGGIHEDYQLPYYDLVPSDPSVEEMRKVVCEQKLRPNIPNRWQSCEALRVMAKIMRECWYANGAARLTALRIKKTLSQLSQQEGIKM
Chain of Mitogen-activated protein kinase kinase kinase 11 (Homo sapiens) (Q16584 whole entry, looked up): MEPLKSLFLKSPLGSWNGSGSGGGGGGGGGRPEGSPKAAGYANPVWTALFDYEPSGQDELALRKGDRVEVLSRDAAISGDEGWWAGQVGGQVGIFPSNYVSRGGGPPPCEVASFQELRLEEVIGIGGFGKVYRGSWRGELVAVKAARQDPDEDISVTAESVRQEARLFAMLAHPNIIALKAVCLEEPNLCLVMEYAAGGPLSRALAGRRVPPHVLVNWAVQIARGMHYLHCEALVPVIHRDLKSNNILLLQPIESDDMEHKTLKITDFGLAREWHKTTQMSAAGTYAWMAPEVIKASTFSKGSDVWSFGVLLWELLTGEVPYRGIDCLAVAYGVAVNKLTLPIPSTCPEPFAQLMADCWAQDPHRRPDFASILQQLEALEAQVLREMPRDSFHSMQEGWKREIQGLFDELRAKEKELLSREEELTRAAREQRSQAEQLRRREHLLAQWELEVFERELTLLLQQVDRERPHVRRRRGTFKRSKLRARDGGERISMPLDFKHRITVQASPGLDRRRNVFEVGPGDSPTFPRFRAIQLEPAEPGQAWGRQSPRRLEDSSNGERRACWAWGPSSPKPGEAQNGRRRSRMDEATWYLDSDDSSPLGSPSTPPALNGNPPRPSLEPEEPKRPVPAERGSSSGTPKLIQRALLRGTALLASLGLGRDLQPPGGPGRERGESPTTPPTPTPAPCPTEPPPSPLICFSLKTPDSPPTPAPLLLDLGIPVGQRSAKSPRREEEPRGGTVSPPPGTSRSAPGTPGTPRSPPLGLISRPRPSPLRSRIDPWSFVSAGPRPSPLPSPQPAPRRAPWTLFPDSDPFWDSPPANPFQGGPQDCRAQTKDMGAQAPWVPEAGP
Chain of Leucine-rich repeat serine/threonine-protein kinase 2 (Homo sapiens), Q5S007 [I2020T] (Q5S007 whole entry I2020T): as the sequence (Q5S007 whole entry G2019S) above, with S2019G, I2020T counted along it

O=C1c2ccc(Nc3ccc(F)cc3F)cc2CCc2ccc(OC[C@H](O)CO)cc21 [Skepinone-L]
inactive: % Residual activity with Skepinone-L [1] 102% | % Residual activity with Skepinone-L [2] 99% | % Residual activity with Skepinone-L [3] 100% | % Residual activity with Skepinone-L [4] 108% | % Residual activity with Skepinone-L [5] 101% | % Residual activity with Skepinone-L [6] 105% | % Residual activity with Skepinone-L [7] 94% | % Residual activity with Skepinone-L [8] 95% | % Residual activity with Skepinone-L [9] 95% | % Residual activity with Skepinone-L [10] 87% | % Residual activity with Skepinone-L [11] 100% | % Residual activity with Skepinone-L [12] 99% | % Residual activity with Skepinone-L [13] 119% | % Residual activity with Skepinone-L [14] 109% | % Residual activity with Skepinone-L [15] 99% | % Residual activity with Skepinone-L [16] 100% | % Residual activity with Skepinone-L [17] 111% | % Residual activity with Skepinone-L [18] 124% | % Residual activity with Skepinone-L [19] 97% | % Residual activity with Skepinone-L [20] 58% | % Residual activity with Skepinone-L [21] 33% | % Residual activity with Skepinone-L [22] 102% | % Residual activity with Skepinone-L [23] 100% | % Residual activity with Skepinone-L [24] 77% | % Residual activity with Skepinone-L [25] 94% | % Residual activity with Skepinone-L [26] 114% | % Residual activity with Skepinone-L [27] 79% | % Residual activity with Skepinone-L [28] 80% | % Residual activity with Skepinone-L [29] 94% | % Residual activity with Skepinone-L [30] 97% | % Residual activity with Skepinone-L [31] 106% | % Residual activity with Skepinone-L [32] 80% | % Residual activity with Skepinone-L [33] 88% | % Residual activity with Skepinone-L [34] 91% | % Residual activity with Skepinone-L [35] 94% | % Residual activity with Skepinone-L [36] 99% | % Residual activity with Skepinone-L [37] 102% | % Residual activity with Skepinone-L [38] 95% | % Residual activity with Skepinone-L [39] 89% | % Residual activity with Skepinone-L [40] 115% | % Residual activity with Skepinone-L [41] 93% | % Residual activity with Skepinone-L [42] 111% | % Residual activity with Skepinone-L [43] 93% | % Residual activity with Skepinone-L [44] 119% | inhibition [45] 40.5% | inhibition [46] 22.5% | inhibition [47] 5.52% | inhibition [48] 2.93% | inhibition [49] 40%
